Test results: patent US20250313556A1, “CERTAIN CHEMICAL ENTITIES, COMPOSITIONS, AND METHODS” (MRJA THERAPEUTICS, INC., priority 2022, published 2025)

Target: c-KIT (Homo sapiens, UniProt P10721)
Test: c-KIT ADP-Glo biochemical assay
Conditions: class ranges
Description: The inhibitory activity against c-KIT was measured using ADP-Glo assay. The percent (%) inhibition at each concentration of compound is calculated based on and relative to the luminescence signal in the Max and Min control wells contained within each assay plate. The Max control wells contain enzyme and substrate as 0% inhibition, and the Min control wells only contain substrate without enzyme as 100% inhibition. The concentrations and % inhibition values for tested compounds are plotted and the concentration of compound required for 50% inhibition (IC50) is determined with a four-parameter logistic dose response equation. The ability of the compounds in Table 1 to inhibit c-KIT was determined.

Chain of c-KIT (P10721 26-976): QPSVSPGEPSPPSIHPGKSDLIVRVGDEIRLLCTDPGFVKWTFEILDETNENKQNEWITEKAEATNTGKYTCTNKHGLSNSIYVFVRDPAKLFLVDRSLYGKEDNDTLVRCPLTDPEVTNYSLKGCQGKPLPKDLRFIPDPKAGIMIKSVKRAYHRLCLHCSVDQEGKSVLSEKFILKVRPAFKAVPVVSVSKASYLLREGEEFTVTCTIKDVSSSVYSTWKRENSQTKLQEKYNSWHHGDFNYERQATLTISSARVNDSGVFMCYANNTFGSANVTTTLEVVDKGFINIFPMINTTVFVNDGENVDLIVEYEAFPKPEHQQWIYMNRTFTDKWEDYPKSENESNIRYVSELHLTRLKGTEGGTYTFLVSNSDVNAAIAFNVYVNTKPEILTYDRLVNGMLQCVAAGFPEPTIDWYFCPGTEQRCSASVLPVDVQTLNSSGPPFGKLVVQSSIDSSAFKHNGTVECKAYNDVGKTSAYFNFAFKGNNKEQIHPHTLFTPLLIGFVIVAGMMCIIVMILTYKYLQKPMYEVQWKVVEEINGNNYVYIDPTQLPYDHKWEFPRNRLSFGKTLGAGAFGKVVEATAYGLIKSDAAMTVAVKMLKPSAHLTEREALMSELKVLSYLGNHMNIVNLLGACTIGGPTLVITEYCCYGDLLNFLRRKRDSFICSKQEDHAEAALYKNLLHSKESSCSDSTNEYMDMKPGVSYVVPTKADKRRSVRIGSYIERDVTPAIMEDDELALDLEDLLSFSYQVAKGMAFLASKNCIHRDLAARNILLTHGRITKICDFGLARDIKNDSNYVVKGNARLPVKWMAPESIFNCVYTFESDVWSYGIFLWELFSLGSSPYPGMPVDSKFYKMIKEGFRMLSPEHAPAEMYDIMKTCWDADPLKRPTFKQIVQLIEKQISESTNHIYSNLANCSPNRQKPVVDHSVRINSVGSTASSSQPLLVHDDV

Question: Which IC50 does the source give for `Cc1c(F)cc(-c2noc([C@H]3C[C@@H]3F)n2)cc1NC(=O)c1cnc2ccccn12` (racemic) [Compound C002, N-(3-fluoro-5-(5-((1R,2S)-2-fluorocyclopropyl)-1,2,4-oxadiazol-3-yl)-2-methylphenyl)imidazo[1,2-a]pyridine-3-carboxamide] here?
Answer: 1000 to 20000 nM

Question: For `COC(=O)N1CC(c2nc(-c3cc(F)c(C)c(NC(=O)c4cnc5ccc(OC)cn45)c3)no2)C1` [Compound C027, methyl 3-(3-(3-fluoro-5-(6-methoxyimidazo[1,2-a]pyridine-3-carboxamido)-4-methylphenyl)-1,2,4-oxadiazol-5-yl)azetidine-1-carboxylate], which IC50 is on record?
Answer: 100 to 1000 nM

Question: How did the IC50 turn out when `COC(=O)N1CC(c2nc(-c3cc(F)c(C)c(NC(=O)c4cnc5cc(N6CCOCC6)ccn45)c3)no2)C1` [Compound C015, methyl 3-(3-(3-fluoro-4-methyl-5-(7-morpholinoimidazo[1,2-a]pyridine-3-carboxamido)phenyl)-1,2,4-oxadiazol-5-yl)azetidine-1-carboxylate] was run?
Answer: ≤ 100 nM

Question: For `COC(=O)N1CC(c2noc(-c3cc(F)c(C)c(NC(=O)c4cnc5ccccn45)c3)n2)C1` [Compound C037, methyl 3-(5-(3-fluoro-5-(imidazo[1,2-a]pyridine-3-carboxamido)-4-methylphenyl)-1,2,4-oxadiazol-3-yl)azetidine-1-carboxylate], which IC50 is on record?
Answer: 100 to 1000 nM

Question: With `Cc1c(F)cc(-c2noc(C3CC(F)(F)C3)n2)cc1NC(=O)c1cnc2ccccn12` [Compound C001, N-(5-(5-(3,3-difluorocyclobutyl)-1,2,4-oxadiazol-3-yl)-3-fluoro-2-methylphenyl)imidazo[1,2-a]pyridine-3-carboxamide] as the compound, how does the IC50 read?
Answer: 1000 to 20000 nM

Question: Which IC50 does the source give for `Cc1c(F)cc(-c2noc(C3CC(F)(F)C3)n2)cc1NC(=O)c1cnc2cc(N3CCNCC3)ccn12` [Compound C010, N-(5-(5-(3,3-difluorocyclobutyl)-1,2,4-oxadiazol-3-yl)-3-fluoro-2-methylphenyl)-7-(piperazin-1-yl)imidazo[1,2-a]pyridine-3-carboxamide] here?
Answer: 100 to 1000 nM

Question: For `COC(=O)N1CC(c2nc(-c3cc(F)c(C)c(NC(=O)c4cnc5ccc(N6CCN(C(C)=O)CC6)cn45)c3)no2)C1` [Compound C036, methyl 3-(3-(3-(6-(4-acetylpiperazin-1-yl)imidazo[1,2-a]pyridine-3-carboxamido)-5-fluoro-4-methylphenyl)-1,2,4-oxadiazol-5-yl)azetidine-1-carboxylate], which IC50 is on record?
Answer: ≤ 100 nM

Question: `COC(=O)N1CC(c2nnc(-c3cc(F)c(C)c(NC(=O)c4cnc5ccccn45)c3)[nH]2)C1` [Compound C048, methyl 3-(5-(3-fluoro-5-(imidazo[1,2-a]pyridine-3-carboxamido)-4-methylphenyl)-4H-1,2,4-triazol-3-yl)azetidine-1-carboxylate] was tested. Which IC50 did it give?
Answer: 100 to 1000 nM

Question: Which IC50 does the source give for `Cc1c(F)cc(-c2noc(C3CC(F)(F)C3)n2)cc1NC(=O)c1cnc2cc(N3CCOCC3)ccn12` [Compound C013, N-(5-(5-(3,3-difluorocyclobutyl)-1,2,4-oxadiazol-3-yl)-3-fluoro-2-methylphenyl)-7-morpholinoimidazo[1,2-a]pyridine-3-carboxamide] here?
Answer: 100 to 1000 nM

Question: Which IC50 does the source give for `Cc1c(F)cc(-c2noc(C3CC(F)(F)C3)n2)cc1NC(=O)c1cnc2ccc(N3CCNCC3)cn12` [Compound C025, N-(5-(5-(3,3-difluorocyclobutyl)-1,2,4-oxadiazol-3-yl)-3-fluoro-2-methylphenyl)-6-(piperazin-1-yl)imidazo[1,2-a]pyridine-3-carboxamide] here?
Answer: 100 to 1000 nM

Question: For `COC(=O)N1CC(c2ncc(-c3cc(F)c(C)c(NC(=O)c4cnc5ccccn45)c3)o2)C1` [Compound C046, methyl 3-(5-(3-fluoro-5-(imidazo[1,2-a]pyridine-3-carboxamido)-4-methylphenyl)oxazol-2-yl)azetidine-1-carboxylate], which IC50 is on record?
Answer: 1000 to 20000 nM

Question: Which IC50 does the source give for `CCOC(=O)N1CC(c2nc(-c3cc(F)c(C)c(NC(=O)c4cnc5ccccn45)c3)no2)C1` [Compound C023, ethyl 3-(3-(3-fluoro-5-(imidazo[1,2-a]pyridine-3-carboxamido)-4-methylphenyl)-1,2,4-oxadiazol-5-yl)azetidine-1-carboxylate] here?
Answer: 100 to 1000 nM

Question: How did the IC50 turn out when `COC(=O)N1CC(c2nc(-c3cc(F)c(C)c(NC(=O)c4cnc5ccccn45)c3)co2)C1` [Compound C045, methyl 3-(4-(3-fluoro-5-(imidazo[1,2-a]pyridine-3-carboxamido)-4-methylphenyl)oxazol-2-yl)azetidine-1-carboxylate] was run?
Answer: 100 to 1000 nM

Question: How did the IC50 turn out when `COC(=O)N1CC(c2nc(-c3cc(F)c(C)c(NC(=O)c4cnc5ccc(Cl)cn45)c3)no2)C1` [Compound C012, methyl 3-(3-(3-(6-chloroimidazo[1,2-a]pyridine-3-carboxamido)-5-fluoro-4-methylphenyl)-1,2,4-oxadiazol-5-yl)azetidine-1-carboxylate] was run?
Answer: 100 to 1000 nM

Question: For `Cc1c(F)cc(-c2noc(C3CC(F)(F)C3)n2)cc1NC(=O)c1cnc2ccc(N3CCN(C)CC3)cn12` [Compound C033, N-(5-(5-(3,3-difluorocyclobutyl)-1,2,4-oxadiazol-3-yl)-3-fluoro-2-methylphenyl)-6-(4-methylpiperazin-1-yl)imidazo[1,2-a]pyridine-3-carboxamide], which IC50 is on record?
Answer: 100 to 1000 nM

Question: With `Cc1c(F)cc(-c2noc([C@H]3C[C@@H]3F)n2)cc1NC(=O)c1cnc2ccc(N3CCOCC3)cn12` (racemic) [Compound C008, N-(3-fluoro-5-(5-((1R,2S)-2-fluorocyclopropyl)-1,2,4-oxadiazol-3-yl)-2-methylphenyl)-6-morpholinoimidazo[1,2-a]pyridine-3-carboxamide] as the compound, how does the IC50 read?
Answer: 1000 to 20000 nM

Question: For `COC(=O)N1CC(c2coc(-c3cc(F)c(C)c(NC(=O)c4cnc5ccccn45)c3)n2)C1` [Compound C047, methyl 3-(2-(3-fluoro-5-(imidazo[1,2-a]pyridine-3-carboxamido)-4-methylphenyl)oxazol-4-yl)azetidine-1-carboxylate], which IC50 is on record?
Answer: 100 to 1000 nM

Question: `COC(=O)N1CC(c2nnc(-c3cc(F)c(C)c(NC(=O)c4cnc5ccccn45)c3)o2)C1` [Compound C044, methyl 3-(5-(3-fluoro-5-(imidazo[1,2-a]pyridine-3-carboxamido)-4-methylphenyl)-1,3,4-oxadiazol-2-yl)azetidine-1-carboxylate] was tested. Which IC50 did it give?
Answer: 1000 to 20000 nM

Question: For `Cc1c(F)cc(-c2noc(C3CC(F)(F)C3)n2)cc1NC(=O)c1cnc2ccc(N3CCOCC3)cn12` [Compound C007, N-(5-(5-(3,3-difluorocyclobutyl)-1,2,4-oxadiazol-3-yl)-3-fluoro-2-methylphenyl)-6-morpholinoimidazo[1,2-a]pyridine-3-carboxamide], which IC50 is on record?
Answer: 100 to 1000 nM

Question: Which IC50 does the source give for `CNC(=O)N1CC(c2nc(-c3cc(F)c(C)c(NC(=O)c4cnc5ccccn45)c3)no2)C1` [Compound C032, N-(3-fluoro-2-methyl-5-(5-(1-(methylcarbamoyl)azetidin-3-yl)-1,2,4-oxadiazol-3-yl)phenyl)imidazo[1,2-a]pyridine-3-carboxamide] here?
Answer: 1000 to 20000 nM

Question: How did the IC50 turn out when `COC(=O)N1CC(c2nc(-c3cc(F)c(C)c(NC(=O)c4cnc5cc(OC)ccn45)c3)no2)C1` [Compound C029, methyl 3-(3-(3-fluoro-5-(7-methoxyimidazo[1,2-a]pyridine-3-carboxamido)-4-methylphenyl)-1,2,4-oxadiazol-5-yl)azetidine-1-carboxylate] was run?
Answer: ≤ 100 nM

Question: With `Cc1c(F)cc(-c2noc(C3CN(C(=O)OC4CC4)C3)n2)cc1NC(=O)c1cnc2ccccn12` [Compound C031, cyclopropyl 3-(3-(3-fluoro-5-(imidazo[1,2-a]pyridine-3-carboxamido)-4-methylphenyl)-1,2,4-oxadiazol-5-yl)azetidine-1-carboxylate] as the compound, how does the IC50 read?
Answer: 1000 to 20000 nM

Question: For `COC(=O)N1CC(c2cnc(-c3cc(F)c(C)c(NC(=O)c4cnc5ccccn45)c3)o2)C1` [Compound C051, methyl 3-(2-(3-fluoro-5-(imidazo[1,2-a]pyridine-3-carboxamido)-4-methylphenyl)oxazol-5-yl)azetidine-1-carboxylate], which IC50 is on record?
Answer: 1000 to 20000 nM

Question: Which IC50 does the source give for `COC(=O)N1CC(c2nc(-c3cc(F)c(C)c(NC(=O)c4cnc5cc(N6CCNCC6)ccn45)c3)no2)C1` [Compound C030, methyl 3-(3-(3-fluoro-4-methyl-5-(7-(piperazin-1-yl)imidazo[1,2-a]pyridine-3-carboxamido)phenyl)-1,2,4-oxadiazol-5-yl)azetidine-1-carboxylate] here?
Answer: 100 to 1000 nM

Question: With `COC(=O)N1CCC[C@@H](c2nc(-c3cc(F)c(C)c(NC(=O)c4cnc5ccccn45)c3F)no2)C1` [Compound C054, methyl (R)-3-(3-(2,5-difluoro-3-(imidazo[1,2-a]pyridine-3-carboxamido)-4-methylphenyl)-1,2,4-oxadiazol-5-yl)piperidine-1-carboxylate] as the compound, how does the IC50 read?
Answer: 100 to 1000 nM

Question: Which IC50 does the source give for `CC(=O)N1CCN(c2ccc3ncc(C(=O)Nc4cc(-c5noc([C@H]6C[C@@H]6F)n5)cc(F)c4C)n3c2)CC1` (racemic) [Compound C039, 6-(4-acetylpiperazin-1-yl)-N-(3-fluoro-5-(5-((1R,2S)-2-fluorocyclopropyl)-1,2,4-oxadiazol-3-yl)-2-methylphenyl)imidazo[1,2-a]pyridine-3-carboxamide] here?
Answer: ≤ 100 nM

Question: `COC(=O)N1CC(c2nc(-c3cc(F)c(C)c(NC(=O)c4cnc5cc(F)ccn45)c3)no2)C1` [Compound C024, methyl 3-(3-(3-fluoro-5-(7-fluoroimidazo[1,2-a]pyridine-3-carboxamido)-4-methylphenyl)-1,2,4-oxadiazol-5-yl)azetidine-1-carboxylate] was tested. Which IC50 did it give?
Answer: 100 to 1000 nM

Question: For `COC(=O)N1CC(c2nc(-c3cc(F)c(C)c(NC(=O)c4cnc5cc(Cl)ccn45)c3)no2)C1` [Compound C016, methyl 3-(3-(3-(7-chloroimidazo[1,2-a]pyridine-3-carboxamido)-5-fluoro-4-methylphenyl)-1,2,4-oxadiazol-5-yl)azetidine-1-carboxylate], which IC50 is on record?
Answer: 100 to 1000 nM
